Patent publication US8507464B2, “Phosphoramidate alkylator prodrugs” (Threshold Pharmaceuticals, Inc., priority 2005, dated 2013)
Read-outs that look alike come from different tables or passages of the source.

Legend:
NCI-H460 cells [1] = test: Antiproliferation assay - oxygen dependence; format: cell-based, human; conditions: Homo sapiens
Source text: . […] The calculated IC50 values (μM) are tabulated in Table Y1 (H460 cells) or Table Y2 (HT29 cells) below.

[2] = format: physicochemical; conditions: glassy carbon, Ag/AgCl reference
in vivo = conditions: for half-life: t ½, mice
[3] = Plasma stability (Table 2B); conditions: 30 min
[4] = system: H460 lung carcinoma spheroids; test: Spheroid model, clonogenic survival; conditions: Homo sapiens, NCI-H460, 2 h, read-out: IC90 H460 Spheroid 10% O2
AA8 cells (wild type) = test: Antiproliferation assay - DNA mutant repair cells; conditions: Cricetulus griseus, CHO-AA8, 2 h
EM9 cells (XRCC1) = test: Antiproliferation assay - DNA mutant repair cells; conditions: Cricetulus griseus, 2 h
UV41 cells (XPF) = test: Antiproliferation assay - DNA mutant repair cells; conditions: Cricetulus griseus, 2 h
UV135 cells (XPG) = test: Antiproliferation assay - DNA mutant repair cells; conditions: Cricetulus griseus, 2 h
IRS1SF cells (XRCC3) = test: Antiproliferation assay - DNA mutant repair cells; conditions: Cricetulus griseus, 2 h
[5] = system: H460 cells exposed as monolayers; test: Clonogenic survival of monolayer cells (Example 35); conditions: Homo sapiens, NCI-H460, 2 h
NCI-H460 cells [6] = test: Antiproliferation assay (Alamar Blue), anoxia vs air; conditions: Homo sapiens, NCI-H460, 2 h
HT29 cells = test: as above; conditions: Homo sapiens, HT-29, 2 h
MES-SA cells = test: as above; conditions: Homo sapiens, 2 h
MES-SA/Dx5 cells = test: as above; conditions: Homo sapiens, MES-SA/Dx5, 2 h
H460 cell line = test: Anti-proliferation assay, hypoxia vs normoxia (Table 1A); conditions: for IC50: Homo sapiens
HT29 = test: Anti-proliferation assay, hypoxia vs normoxia (Table 1B); conditions: for IC50: Homo sapiens
DX-5 = test: as above
HCT116 = test: as above; conditions: for IC50: Homo sapiens
[7] = CD-1, Balb/c for Compound 1, mouse, iv

Cn1c(COP(=O)(NCCCl)NCCCl)cnc1[N+](=O)[O-] [Compound 36]
IC50 (NCI-H460 cells [1]; NCI-H460, read-out: IC50 in H460 cells, 0.1% O2): 30 µM
IC50 (NCI-H460 cells [1]; NCI-H460, read-out: IC50 in H460 cells, 0.6% O2): 60 µM
IC50 (NCI-H460 cells [1]; NCI-H460, read-out: IC50 in H460 cells, 1% O2): 60 µM
IC50 (NCI-H460 cells [1]; NCI-H460, read-out: IC50 in H460 cells, 10% O2): > 100 µM
IC50 (NCI-H460 cells [1]; NCI-H460, read-out: IC50 in H460 cells, Air): > 100 µM
IC50 (NCI-H460 cells [1]; NCI-H460, read-out: IC50 in H460 cells, N2): 1 µM
Reduction Potentials, 100 mV/sec ([2]; scan rate 100 mV/sec): −609 mV
Reduction Potentials, 10,000 mV/sec ([2]; scan rate 10,000 mV/sec): −634 mV
clearance (in vivo; CD-1 (Compounds 5, 23, 36), Balb/c (Compound 1), mouse, iv): 77.4 mL/min/kg
Cmax (in vivo; CD-1, Balb/c for Compound 1, mouse, ip): 44000 ng/mL
AUC (in vivo; [7]): 10800 ng·h/mL
Cmax (in vivo; [7]): 27700 ng/mL
Vd (in vivo; [7]): 1.27 L/kg
half-life (in vivo; CD-1, Balb/c for Compound 1, mouse, iv, intravenous administration in mice): 14.4 min
AUC (in vivo; CD-1, mouse, ip): 26100 ng·h/mL
half-life (in vivo; mouse, ip, intraperitoneal administration in mice): 10.8 min
Plasma stability (% at 30 min) [3]: 60%
IC90 [4]: > 100 µM
IC50 (AA8 cells (wild type); read-out: IC50 AA8 Air): > 100 µM
IC50 (AA8 cells (wild type); read-out: IC50 AA8 Anoxia): 2 µM
IC50 (EM9 cells (XRCC1); read-out: IC50 EM9 Air): > 100 µM
IC50 (EM9 cells (XRCC1); read-out: IC50 EM9 Anoxia): 4 µM
IC50 (UV41 cells (XPF); read-out: IC50 UV41 Air): 20 µM
IC50 (UV41 cells (XPF); read-out: IC50 UV41 Anoxia): 0.03 µM
IC50 (UV135 cells (XPG); read-out: IC50 UV135 Air): > 100 µM
IC50 (UV135 cells (XPG); read-out: IC50 UV135 Anoxia): 2 µM
IC50 (IRS1SF cells (XRCC3); read-out: IC50 IRS1SF Air): 59 µM
IC50 (IRS1SF cells (XRCC3); read-out: IC50 IRS1SF Anoxia): 0.3 µM
IC90 ([5]; read-out: IC90 H460 Monolayer Air): 100 µM
IC90 ([5]; read-out: IC90 H460 Monolayer N2): 1 µM
IC50 (NCI-H460 cells [6]; read-out: IC50 H460 Air, air, 2 h exposure): > 100 µM
IC50 (NCI-H460 cells [6]; read-out: IC50 H460 Anoxia, anoxia, 2 h exposure): 0.88 µM
IC50 (HT29 cells; read-out: IC50 HT29 Air): > 100 µM
IC50 (HT29 cells; read-out: IC50 HT29 Anoxia): 55 µM
IC50 (MES-SA cells; read-out: IC50 MES-SA Air): > 100 µM
IC50 (MES-SA cells; read-out: IC50 MES-SA Anoxia): 5 µM
IC50 (MES-SA/Dx5 cells; read-out: IC50 MES-SA/Dx5 Air): > 100 µM
IC50 (MES-SA/Dx5 cells; read-out: IC50 MES-SA/Dx5 Anoxia): 7.5 µM
IC50 (H460 cell line; NCI-H460, read-out: Hypoxia P (proliferation IC50)): 0.88 µM
IC50 (H460 cell line; NCI-H460, read-out: Normoxia P (proliferation IC50)): > 100 µM
HCR P (H460 cell line; ratio of IC50 in normoxia and hypoxia): >110
HT29 HCR P (HT29): >2
IC50 (HT29; HT-29, read-out: HT29 P H (proliferation IC50, hypoxia)): 55 µM
IC50 (HT29; HT-29, read-out: HT29 P H, value in parentheses): 35 µM
IC50 (HT29; HT-29, read-out: HT29 P N (proliferation IC50, normoxic)): > 100 µM
DX-5 HCR (DX-5): >13
IC50 (DX-5; read-out: DX-5 P H (proliferation IC50, hypoxia)): 7.5 µM
IC50 (DX-5; read-out: DX-5 P N (proliferation IC50, normoxic)): > 100 µM
HCT116 HCR (HCT116): >20
IC50 (HCT116; HCT-116, read-out: HCT116 P H (proliferation IC50, hypoxia)): 5 µM
IC50 (HCT116; HCT-116, read-out: HCT116 P N (proliferation IC50, normoxic)): > 100 µM
